Laboratory results taken from patent US20230293539A1, “MLL1-WDR5 PROTEIN-PROTEIN INTERACTION INHIBITOR COMPOUNDS AND USES THEREOF” (HUYABIO International, LLC, priority 2022, published 2023).

Legend:
[1] = test system: MV 411 cells; assay: Cell Viability Assay (CellTiter-Glo); assay type: cell-based; details: Homo sapiens, MV4-11, 72 hours, read-out: IC50 (anti-proliferative activity against leukemia cells)
Experimental: Cell lines and maintenance: All cell lines (MV 411) used for in vitro and in vivo studies were supplied as part of Wuxi AppTech cell bank. Cell lines were maintained in a medium supplemented with 10% heat inactivated fetal bovine serum at 37° C., in an atmosphere of 5% CO2, in air. The tumor cells were routinely subcultured twice weekly. The cells growing in an exponential growth phase were used for the in vitro cell potency and in vivo efficacy studies.
EXAMPLE 1: Cell Viability Assay: For cell cytotoxicity assays, 2000 cells/well were plated in 384-well plates. Twenty four hours after plating, cells were treated with inhibitors at the indicated compound concentrations. On Day 3 (72 hours), cells were lysed with CellTiter-Glo® Luminescent Cell Viability Assay reagent (Promega) and luminescence was read using the EnVision Multi-plate reader. To calculate IC50, a dose-response curve is generated using a nonlinear regression model with a sigmoidal dose response. The formula of surviving rate is shown below. IC50 values were automatically generated by GraphPad Prism 8.0. See FIG. 1A and FIG. 1B and Tables 3 and 4.

[2] = biological target: HDAC2 (Homo sapiens, UniProt Q92769); assay: Selectivity panel (Table 3); assay type: biochemical
Sequence of HDAC2 (Q92769 whole entry, species assumed): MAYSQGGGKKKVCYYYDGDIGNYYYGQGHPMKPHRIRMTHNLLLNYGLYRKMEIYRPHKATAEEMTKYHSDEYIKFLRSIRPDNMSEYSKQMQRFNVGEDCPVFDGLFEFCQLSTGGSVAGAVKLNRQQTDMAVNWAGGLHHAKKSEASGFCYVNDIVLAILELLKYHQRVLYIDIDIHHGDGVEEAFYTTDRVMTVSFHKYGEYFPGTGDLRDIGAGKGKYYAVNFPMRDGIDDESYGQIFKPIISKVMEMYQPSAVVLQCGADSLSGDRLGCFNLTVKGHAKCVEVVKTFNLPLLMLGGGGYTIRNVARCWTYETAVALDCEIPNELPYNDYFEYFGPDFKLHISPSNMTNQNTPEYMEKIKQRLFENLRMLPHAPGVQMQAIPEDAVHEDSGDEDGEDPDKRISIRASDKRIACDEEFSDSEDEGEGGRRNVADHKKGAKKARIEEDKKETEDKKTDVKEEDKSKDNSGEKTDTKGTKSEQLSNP

[3] = biological target: HDAC3 (Homo sapiens, UniProt O15379); assay: Selectivity panel (Table 3); assay type: biochemical
Sequence of HDAC3 (O15379 whole entry, species assumed): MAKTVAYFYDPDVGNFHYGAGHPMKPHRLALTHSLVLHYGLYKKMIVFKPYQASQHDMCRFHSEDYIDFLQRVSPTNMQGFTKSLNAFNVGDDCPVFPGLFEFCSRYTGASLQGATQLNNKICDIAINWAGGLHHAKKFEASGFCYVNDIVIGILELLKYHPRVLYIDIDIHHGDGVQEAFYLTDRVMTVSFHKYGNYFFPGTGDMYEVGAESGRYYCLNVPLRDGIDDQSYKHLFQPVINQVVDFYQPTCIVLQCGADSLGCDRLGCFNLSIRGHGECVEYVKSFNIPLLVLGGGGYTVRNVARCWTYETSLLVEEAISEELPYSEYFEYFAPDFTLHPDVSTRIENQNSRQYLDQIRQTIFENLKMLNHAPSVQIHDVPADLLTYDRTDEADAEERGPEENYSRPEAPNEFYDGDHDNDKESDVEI
Sequence of HDAC3 (Q9Y618 395-489 partner limits assumed, species assumed): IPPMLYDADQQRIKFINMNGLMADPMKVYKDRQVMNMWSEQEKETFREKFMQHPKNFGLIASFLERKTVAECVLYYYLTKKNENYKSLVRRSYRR

[4] = biological target: HDAC6 (Homo sapiens, UniProt Q9UBN7); assay: Selectivity panel (Table 3); assay type: biochemical
Sequence of HDAC6 (Q9UBN7 whole entry, species assumed): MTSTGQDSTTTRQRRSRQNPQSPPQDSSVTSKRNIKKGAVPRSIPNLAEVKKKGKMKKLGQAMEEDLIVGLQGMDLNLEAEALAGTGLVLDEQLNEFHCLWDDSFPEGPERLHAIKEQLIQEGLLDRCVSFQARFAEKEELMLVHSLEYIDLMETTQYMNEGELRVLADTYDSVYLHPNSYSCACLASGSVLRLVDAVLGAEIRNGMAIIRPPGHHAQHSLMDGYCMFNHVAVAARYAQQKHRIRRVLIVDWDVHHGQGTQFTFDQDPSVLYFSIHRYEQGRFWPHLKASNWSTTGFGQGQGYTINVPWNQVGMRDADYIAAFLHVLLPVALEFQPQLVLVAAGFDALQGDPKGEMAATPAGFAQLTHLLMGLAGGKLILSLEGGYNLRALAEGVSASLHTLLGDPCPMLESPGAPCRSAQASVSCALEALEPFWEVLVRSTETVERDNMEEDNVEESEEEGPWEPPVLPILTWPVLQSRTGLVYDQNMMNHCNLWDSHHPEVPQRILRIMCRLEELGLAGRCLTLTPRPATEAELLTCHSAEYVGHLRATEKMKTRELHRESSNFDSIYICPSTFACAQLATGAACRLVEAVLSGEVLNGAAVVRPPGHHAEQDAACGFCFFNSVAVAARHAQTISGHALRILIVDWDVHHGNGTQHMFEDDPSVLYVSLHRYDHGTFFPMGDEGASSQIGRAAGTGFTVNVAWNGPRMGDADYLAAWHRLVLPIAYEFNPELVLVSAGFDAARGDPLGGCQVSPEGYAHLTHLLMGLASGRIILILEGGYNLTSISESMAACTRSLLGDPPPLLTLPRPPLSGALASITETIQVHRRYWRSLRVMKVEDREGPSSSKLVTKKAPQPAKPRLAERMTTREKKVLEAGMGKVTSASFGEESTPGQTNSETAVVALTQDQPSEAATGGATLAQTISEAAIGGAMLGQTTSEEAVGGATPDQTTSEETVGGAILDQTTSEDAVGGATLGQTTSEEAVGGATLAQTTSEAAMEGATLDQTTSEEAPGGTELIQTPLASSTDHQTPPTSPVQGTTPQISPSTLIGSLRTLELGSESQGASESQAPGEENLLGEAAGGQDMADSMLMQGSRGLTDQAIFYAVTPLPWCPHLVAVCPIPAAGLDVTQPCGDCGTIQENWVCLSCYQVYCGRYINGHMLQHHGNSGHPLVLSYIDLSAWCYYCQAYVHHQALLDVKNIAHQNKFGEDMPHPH

[5] = biological target: KRAS WT (Homo sapiens, UniProt P01116); assay: Selectivity panel (Table 3); assay type: binding
Sequence of KRAS WT (P01116 1-188 isoform P01116-2): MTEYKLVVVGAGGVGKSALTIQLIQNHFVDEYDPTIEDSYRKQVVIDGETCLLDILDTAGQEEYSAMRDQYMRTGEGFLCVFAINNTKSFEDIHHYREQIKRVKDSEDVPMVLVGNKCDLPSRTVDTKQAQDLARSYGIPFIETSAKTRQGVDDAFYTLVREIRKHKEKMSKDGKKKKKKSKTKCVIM

[6] = biological target: LSD1 (Homo sapiens, UniProt O60341); assay: Selectivity panel (Table 3); assay type: biochemical
[7] = biological target: PRMT5 (Homo sapiens, UniProt O14744); assay: Selectivity panel (Table 3); assay type: biochemical
Sequence of PRMT5 (O14744 whole entry, species assumed): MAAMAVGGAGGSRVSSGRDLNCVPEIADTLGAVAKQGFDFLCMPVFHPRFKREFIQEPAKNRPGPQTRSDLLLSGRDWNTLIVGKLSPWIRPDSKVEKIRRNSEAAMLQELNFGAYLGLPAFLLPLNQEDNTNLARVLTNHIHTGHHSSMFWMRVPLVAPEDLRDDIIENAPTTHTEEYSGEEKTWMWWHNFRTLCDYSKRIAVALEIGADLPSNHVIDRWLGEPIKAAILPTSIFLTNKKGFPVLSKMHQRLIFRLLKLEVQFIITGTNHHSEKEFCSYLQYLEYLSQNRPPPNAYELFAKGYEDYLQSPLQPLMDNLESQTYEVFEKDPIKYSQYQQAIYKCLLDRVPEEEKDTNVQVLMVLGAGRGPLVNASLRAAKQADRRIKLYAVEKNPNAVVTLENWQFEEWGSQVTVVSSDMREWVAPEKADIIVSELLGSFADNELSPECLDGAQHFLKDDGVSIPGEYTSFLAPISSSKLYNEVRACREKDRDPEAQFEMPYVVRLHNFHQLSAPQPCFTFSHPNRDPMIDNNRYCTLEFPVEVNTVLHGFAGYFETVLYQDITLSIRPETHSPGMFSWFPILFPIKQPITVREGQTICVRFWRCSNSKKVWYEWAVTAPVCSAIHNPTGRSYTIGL
Sequence of PRMT5 (Q9BQA1 whole entry partner, species assumed): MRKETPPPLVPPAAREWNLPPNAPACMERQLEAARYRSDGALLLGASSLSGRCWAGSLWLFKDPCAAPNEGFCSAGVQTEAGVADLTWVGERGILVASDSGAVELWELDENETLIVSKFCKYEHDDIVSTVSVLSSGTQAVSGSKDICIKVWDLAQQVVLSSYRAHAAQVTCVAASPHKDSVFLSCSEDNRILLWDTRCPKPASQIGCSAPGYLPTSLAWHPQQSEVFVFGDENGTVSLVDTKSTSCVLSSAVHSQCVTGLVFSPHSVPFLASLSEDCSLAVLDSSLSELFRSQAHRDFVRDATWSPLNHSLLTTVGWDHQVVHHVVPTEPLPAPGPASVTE

[8] = biological target: SHP2 D61G (Homo sapiens, UniProt Q06124, D61G); assay: Selectivity panel (Table 3); assay type: biochemical
Sequence of SHP2 D61G (Q06124 whole entry D61G): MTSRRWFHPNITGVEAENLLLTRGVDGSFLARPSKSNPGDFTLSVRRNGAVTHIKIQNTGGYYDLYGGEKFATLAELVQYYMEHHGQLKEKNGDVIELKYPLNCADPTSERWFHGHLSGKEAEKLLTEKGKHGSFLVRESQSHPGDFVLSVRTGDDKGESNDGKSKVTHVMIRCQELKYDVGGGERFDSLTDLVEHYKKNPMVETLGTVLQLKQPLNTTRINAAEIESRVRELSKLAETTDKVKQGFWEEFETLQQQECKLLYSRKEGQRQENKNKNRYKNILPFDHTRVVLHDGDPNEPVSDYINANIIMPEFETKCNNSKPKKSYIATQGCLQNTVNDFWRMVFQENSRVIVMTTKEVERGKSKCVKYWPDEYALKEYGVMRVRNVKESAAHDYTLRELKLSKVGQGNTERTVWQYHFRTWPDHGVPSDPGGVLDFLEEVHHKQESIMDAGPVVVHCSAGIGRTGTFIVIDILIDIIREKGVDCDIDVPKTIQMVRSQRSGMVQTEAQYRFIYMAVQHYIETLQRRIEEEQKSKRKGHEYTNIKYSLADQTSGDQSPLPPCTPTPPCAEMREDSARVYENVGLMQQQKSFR

[9] = biological target: TCPTP (Homo sapiens, UniProt P17706); assay: Selectivity panel (Table 3); assay type: biochemical
Sequence of TCPTP (P17706 whole entry, species assumed): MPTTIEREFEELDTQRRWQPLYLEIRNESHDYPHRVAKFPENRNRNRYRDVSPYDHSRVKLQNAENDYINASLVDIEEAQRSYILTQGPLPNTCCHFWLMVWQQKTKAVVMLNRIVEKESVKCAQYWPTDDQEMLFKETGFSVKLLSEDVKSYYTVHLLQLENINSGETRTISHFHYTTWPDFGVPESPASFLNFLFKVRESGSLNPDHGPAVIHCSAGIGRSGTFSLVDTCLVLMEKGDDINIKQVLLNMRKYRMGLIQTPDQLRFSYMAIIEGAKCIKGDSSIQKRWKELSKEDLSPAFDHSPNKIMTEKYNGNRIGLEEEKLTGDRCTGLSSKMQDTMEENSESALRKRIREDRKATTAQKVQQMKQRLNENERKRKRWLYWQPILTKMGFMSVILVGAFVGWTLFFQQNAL

[10] = biological target: TEAD2 (Homo sapiens, UniProt Q15562); assay: Selectivity panel (Table 3); assay type: binding
Sequence of TEAD2 (Q15562 whole entry, species assumed): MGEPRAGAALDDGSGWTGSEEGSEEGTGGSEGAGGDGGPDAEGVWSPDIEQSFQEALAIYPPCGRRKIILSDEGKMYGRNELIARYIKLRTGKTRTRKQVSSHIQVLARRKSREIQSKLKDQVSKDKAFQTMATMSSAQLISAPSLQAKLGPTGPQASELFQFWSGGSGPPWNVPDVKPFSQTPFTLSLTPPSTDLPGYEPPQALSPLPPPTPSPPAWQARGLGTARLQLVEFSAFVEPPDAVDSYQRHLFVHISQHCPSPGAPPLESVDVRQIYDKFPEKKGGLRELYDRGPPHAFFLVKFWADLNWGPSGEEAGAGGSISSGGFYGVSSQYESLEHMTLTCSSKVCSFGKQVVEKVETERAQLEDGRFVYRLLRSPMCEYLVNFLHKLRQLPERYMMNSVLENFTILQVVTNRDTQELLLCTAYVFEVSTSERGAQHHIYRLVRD

[11] = biological target: WDR5 (Homo sapiens, UniProt P61964); assay: Selectivity panel (Table 3); assay type: binding
[12] = Compound formulation stability assay; assay type: physicochemical; details: 10 mg/mL in 10% DMSO/10% solutol HS 15/80% water, 2-8° C.
Experimental: Compound formulation stability assay: Test articles were formulated in 10% DMSO/10% solutol HS 15/80% water and stored at 4° C. Formulated compounds were analyzed by a HPLC-UV method for actual concentrations and % remaining on Day 1, 4 and 7 after formulation to determine the stability of the formulated test article. The HPLC system was equipped with Shimadzu LC-20 high-performance liquid chromatograph, SIL-20AC auto sampler, LC-20AB pump and SPD-M20A detector. A Waters XBridge C18 (4.6*100 mm) column was applied for the separation. […]

[13] = Liver S9 stability assay; assay type: in vitro ADME, mouse
Experimental: Liver S9 stability assay: Test compounds (1 μM) and positive control were incubated with 5 mM GSH and liver S9 (1 mg protein/ml) from multiple species (including human, monkey, dog, rat and mouse) at 37° C. at 0, 10, 30, and 60 minutes in duplicate. After adding the stop solution, 100 μL of supernatant were analyzed by LC-MS/MS. The % remaining of test compound, T1/2 (min), and CLint (μL/min/mg) were calculated and were reported.

[14] = Metabolite ID in Liver S9; assay type: in vitro ADME; details: HBI-2375 and metabolites in Human liver S9
[15] = WBS (whole blood stability) assay; assay type: in vitro ADME; details: for % Remaining after 60 min incubation: 2 μM, 37° C.
Experimental: WBS (whole blood stability) assay: The blood samples were collected freshly from multiple species including human, monkey, dog, rat and mouse. 2 μM of test compound and positive control were incubated with the whole blood at 37° C. at 0, 10, 30, 60, and 120 minutes in duplicate. After adding the stop solution, 200 μL of supernatant were analyzed by LC-MS/MS. The % remaining of test compound and T1/2 (min) were calculated and reported.

[16] = Predicted brain concentrations based on mouse/rat PK/BBB data; details: Equivalent Human 6.5 mg/kg
Experimental: The ability of a compound of Formula (IIIb) (HBI_084 (HBI-2375)) to cross the BBB is determined in a population comprising one or more human subjects by orally (PO) or intravenously (IV) administering a pharmaceutical composition comprising a compound of Formula (IIIb) to the individual members of the population of human subjects at one or more doses described in Example 5. Blood samples and CSF are drawn from the subjects and compound concentrations are determined in the blood plasma and CSF of the subjects as described in Example 4. Pharmacokinetic parameters are determined by means analogous to those described in Examples 1-4. Doses for HBI-2375 may be based on a target concentration in subjects' brain predicted using the following table.

[17] = in vitro; details: human, plasma
[18] = in vitro; details: rat, plasma
[19] = in vitro; details: cynomolgus monkey, plasma

Cc1c(F)c(N)cc(C(=O)Nc2cc(-n3cc(C(=O)N4CCN(C)CC4)nn3)c(F)cc2N2C[C@@H](C)N(C)[C@@H](C)C2)c1Cl [HYBI-084, 5-amino-2-chloro-4-fluoro-N-(4-fluoro-5-(4-(4-methylpiperazine-1-carbonyl)-1H-1,2,3-triazol-1-yl)-2-((3S,5R)-3,4,5-trimethylpiperazin-1-yl)phenyl)-3-methylbenzamide]
IC50 [1]: 3170 nM | IC50 [2]: > 1000 nM | IC50 [3]: > 1000 nM | IC50 [4]: > 1000 nM | IC50 [5]: > 1000 nM | IC50 [6]: > 1000 nM | IC50 [7]: > 1000 nM | IC50 [8]: > 1000 nM | IC50 [9]: > 1000 nM | IC50 [10]: > 1000 nM | IC50 [11]: 0.683 nM | Accuracy % (Day 0) ([12]; Day 0): 92.8% | Formulation Appearance (Day 0) ([12]; Day 0): clear solution | Remaining % (Day 0) ([12]; Day 0): 100% | Accuracy % (Day 1) ([12]; Day 1): 93.4% | Formulation Appearance (Day 1) ([12]; Day 1): clear solution | Remaining % (Day 1) ([12]; Day 1): 101% | Accuracy % (Day 4) ([12]; Day 4): 92.9% | Formulation Appearance (Day 4) ([12]; Day 4): clear solution | Remaining % (Day 4) ([12]; Day 4): 100% | Accuracy % (Day 7) ([12]; Day 7): 91.5% | Formulation Appearance (Day 7) ([12]; Day 7): clear solution | Remaining % (Day 7) ([12]; Day 7): 98.7% | half-life at 1 μM ([13]; Mouse liver S9): > 2.42 h | microsomal CLint at 1 μM ([13]; Mouse liver S9): < 4.8 µL/min/mg | % Remaining after 60 min incubation ([13]; Mouse liver S9, 1 μM, 5 mM GSH, 37° C.): 110% | Relative Abundance (UV Peak Area % Total) [14]: 78.70% | half-life at 2 μM ([15]; Dog whole blood): > 2.41 h | % Remaining after 60 min incubation ([15]; Dog whole blood): 94.6% | half-life at 2 μM ([15]; Human whole blood): 10.3 h | % Remaining after 60 min incubation ([15]; Human whole blood): 110% | half-life at 2 μM ([15]; Mouse whole blood): > 2.41 h | % Remaining after 60 min incubation ([15]; Mouse whole blood): 108% | half-life at 2 μM ([15]; Rat whole blood): > 2.41 h | % Remaining after 60 min incubation ([15]; Rat whole blood): 109% | Predicted Mean Brain Concentration, Cmin = 24 h ([16]; estimated from repeated PO mouse): 11.1 ng/g | Predicted Mean Brain Concentration, Cmin = 24 h ([16]; estimated from single PO mouse): 4.5 ng/g | Predicted Mean Brain Concentration, Cmin = 24 h ([16]; estimated from single PO rat): 3.6 ng/g | fraction unbound [17]: < 0.07 | fraction unbound [18]: < 0.07 | fraction unbound [19]: < 0.24
